Experiments:
[1] = target: T1, wild-type Androgen Receptor (AR-wt) (Homo sapiens (Human), UniProt P10275); assay: LNCaP-AR-wt AG reporter assay (agonist mode); type: cell-based; conditions: for EC50: read-out: LNCaP-AR-wt AG pEC50 (converted); for Emax: read-out: LNCaP-AR-wt AG MAX % Stim
[2] = target: T2, F876L mutant Androgen Receptor (AR-F876L) (Homo sapiens (Human), UniProt P10275, F877L); assay: LNCaP-AR-F876L ANT reporter assay (antagonist mode); type: cell-based; conditions: for IC50 / LNCaP-AR-F876L ANT pIC50: antagonist mode, pIC50 = −Log10(IC50 in Molar); for IC50: read-out: LNCaP-AR-F876L ANT pIC50 (converted); for Emax: read-out: LNCaP-AR-F876L ANT MAX % Inh
rGABA-gated Cl− channel = assay: GABA-Gated Cl Channel Antagonist Radioligand Binding Assay; parameters: species or system rat; conditions: 10 μM single point, [35S]-TBPS, cerebral cortex membrane homogenates
Protocol: GABA-gated C1 Chanel assays were performed at CEREP according to the following method. Membrane homogenates of cerebral cortex (120 μg protein) were incubated for 120 min at 22° C. with 3 nM […] in the absence or presence of the test compound in a buffer containing 50 mM Na2HPO4/KH2PO4 (pH 7.4) and 500 mM NaCl. Nonspecific binding was determined in the presence of 20 μM picrotoxinin. Following incubation, the samples were filtered rapidly under vacuum through glass fiber filters (GF/B, Packard) presoaked with 0.3% PEI and rinsed several times with ice-cold 50 mM Tris-HCl using a 96-sample cell harvester (Unifilter, Packard). The filters were dried then counted for radioactivity in a scintillation counter (Topcount, Packard) using a scintillation cocktail (Microscint 0, Packard). The results are expressed as a percent inhibition of the control radio ligand specific binding. The standard reference compound is picrotoxinin, which was tested in each experiment at several concentrations to obtain a competition curve from which its IC50 was calculated. In this assay, the following representative compounds disclosed herein had recorded activities at a 10 μM single point concentration in the GABA-gated Cl— Channel Binding Assay.

[3] = target: T1, wild-type Androgen Receptor (AR-wt); assay: LNCaP-AR-wt ANT reporter assay (antagonist mode); type: cell-based; conditions: for IC50 / LNCaP-AR-wt ANT pIC50: antagonist mode, pIC50 = −Log10(IC50 in Molar); for IC50: read-out: LNCaP-AR-wt ANT pIC50 (converted); for Emax: read-out: LNCaP-AR-wt ANT MAX % Inh
[4] = target: T2, F876L mutant Androgen Receptor (AR-F876L); assay: LNCaP-AR-F876L AG reporter assay (agonist mode); type: cell-based; conditions: for EC50: read-out: LNCaP-AR-F876L AG pEC50 (converted); for Emax: read-out: LNCaP-AR-F876L AG MAX % Stim
[5] = agonist mode, pEC50 = −Log10(EC50 in Molar)
[6] = maximum % stimulation (agonist response) over the tested concentration range
[7] = maximum % inhibition of R1881 control response over the tested concentration range

T1 sequence (P10275 whole entry): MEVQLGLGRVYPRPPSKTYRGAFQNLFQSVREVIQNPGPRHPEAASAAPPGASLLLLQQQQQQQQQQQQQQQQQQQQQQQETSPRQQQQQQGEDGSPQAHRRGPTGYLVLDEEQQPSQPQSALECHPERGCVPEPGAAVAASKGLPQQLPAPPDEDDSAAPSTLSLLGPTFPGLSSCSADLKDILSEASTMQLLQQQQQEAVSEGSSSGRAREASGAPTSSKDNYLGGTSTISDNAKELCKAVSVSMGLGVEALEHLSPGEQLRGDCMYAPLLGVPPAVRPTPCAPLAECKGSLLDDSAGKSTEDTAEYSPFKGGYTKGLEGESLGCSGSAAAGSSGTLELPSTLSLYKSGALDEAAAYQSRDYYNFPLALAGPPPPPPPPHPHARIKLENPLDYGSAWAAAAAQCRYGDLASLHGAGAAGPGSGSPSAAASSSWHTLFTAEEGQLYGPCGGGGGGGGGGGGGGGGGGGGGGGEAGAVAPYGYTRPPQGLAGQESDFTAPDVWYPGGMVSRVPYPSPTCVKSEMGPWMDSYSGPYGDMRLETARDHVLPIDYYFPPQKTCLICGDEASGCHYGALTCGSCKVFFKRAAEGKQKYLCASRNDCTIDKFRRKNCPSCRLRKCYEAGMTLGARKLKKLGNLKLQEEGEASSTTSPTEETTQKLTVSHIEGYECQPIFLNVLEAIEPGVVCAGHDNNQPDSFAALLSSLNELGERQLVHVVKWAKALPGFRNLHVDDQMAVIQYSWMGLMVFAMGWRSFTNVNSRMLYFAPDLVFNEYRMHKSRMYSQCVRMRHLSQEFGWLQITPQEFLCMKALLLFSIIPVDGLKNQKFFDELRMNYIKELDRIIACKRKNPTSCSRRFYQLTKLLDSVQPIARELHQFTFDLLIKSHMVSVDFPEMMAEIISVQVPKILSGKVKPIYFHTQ
T2 sequence (P10275 whole entry F877L): as the sequence (P10275 whole entry) above, with F877L counted along it

Row | Compound | LNCaP-AR-wt AG pEC50 [1, 5] | LNCaP-AR-wt AG MAX % Stim [1, 6] [%] | IC50 [2] [nM] | LNCaP-AR-F876L ANT MAX % Inh [2, 7] [%] | rGABA-gated Cl− channel % inh @10 μM (rGABA-gated Cl− channel) [%] | IC50 [3] [nM] | LNCaP-AR-wt ANT MAX % Inh [3, 7] [%] | LNCaP-AR-F876L AG pEC50 [4, 5] | LNCaP-AR-F876L AG MAX % Stim [4, 6] [%] | EC50 [1, 5] [nM] | Emax [1, 6] [%] | Emax [2, 7] [%] | Emax [3, 7] [%] | EC50 [4, 5] [nM] | Emax [4, 6] [%] | LNCaP-AR-F876L ANT pIC50 [2] | LNCaP-AR-wt ANT pIC50 [3]
1 | N#Cc1ncc(N2C(=O)C3(CCC3)N(c3ccc(OC4CCCNCC4)cc3)C2=S)cc1C(F)(F)F (stereo not drawn) [Cpd 30, 5-[8-[4-(azepan-4-yloxy)phenyl]-5-oxo-7-thioxo-6,8-diazaspiro[3.4]octan-6-yl]-3-(trifluoromethyl)pyridine-2-carbonitrile] | <4.82 | 0.3 | 91.2 | 100.6 | 53.6 | 708 | 99.7 | <4.82 | 0.3 | – | – | – | – | – | – | – | –
2 | CCOC(=O)N1CCN(C(=O)c2ccc(N3C(=S)N(c4cnc(C#N)c(C(F)(F)F)c4)C(=O)C34CCC4)cc2)CC1 [Cpd 31, ethyl 4-[4-[6-[6-cyano-5-(trifluoromethyl)-3-pyridyl]-5-oxo-7-thioxo-6,8-diazaspiro[3.4]octan-8-yl]benzoyl]piperazine-1-carboxylate] | – | – | 617 | – | 79.0 | 1290 | – | – | – | > 15100 | 0.3 | 87.1 | 80.3 | > 15100 | 0.1 | – | –
3 | COC(=O)CN1CCC(Oc2ccc(N3C(=S)N(c4cnc(C#N)c(C(F)(F)F)c4)C(=O)C34CCC4)cc2)CC1 [Cpd 33, methyl 2-[4-[4-[6-[6-cyano-5-(trifluoromethyl)-3-pyridyl]-5-oxo-7-thioxo-6,8-diazaspiro[3.4]octan-8-yl]phenoxy]-1-piperidyl]acetate] | – | – | 389 | – | 99.2 | 708 | – | – | – | > 15100 | 0.2 | 98.2 | 98.9 | > 15100 | 2.8 | – | –
4 | CC(C)(C)CCN1CCC(Oc2ccc(N3C(=S)N(c4cnc(C#N)c(C(F)(F)F)c4)C(=O)C34CCC4)cc2)CC1 [Cpd 34, 5-(5-(4-((1-(3,3-dimethylbutyl)piperidin-4-yl)oxy)phenyl)-8-oxo-6-thioxo-5,7-diazaspiro[3.4]octan-7-yl)-3-(trifluoromethyl)picolinonitrile] | – | – | 1260 | – | 91.2 | 3310 | – | – | – | > 15100 | -0.4 | 89.7 | 82.7 | > 15100 | 0.2 | – | –
5 | Cc1cc(N2C(=O)C3(CCC3)N(c3ccc(OC4CCN(C5CC5)CC4)cc3)C2=S)cnc1C#N [Cpd 35, 5-[8-[4-[(1-cyclopropyl-4-piperidyl)oxy]phenyl]-5-oxo-7-thioxo-6,8-diazaspiro[3.4]octan-6-yl]-3-methyl-pyridine-2-carbonitrile] | – | – | 372 | – | 49.9 | 912 | – | – | – | > 15100 | 0.2 | 99.5 | 100 | > 15100 | 0.3 | – | –
6 | N#Cc1ncc(N2C(=O)C3(CCC3)N(c3ccc(OC4CCN(C5CC5)CC4)cc3)C2=S)cc1C(F)(F)F [Cpd 36, 5-[8-[4-[(1-cyclopropyl-4-piperidyl)oxy]phenyl]-5-oxo-7-thioxo-6,8-diazaspiro[3.4]octan-6-yl]-3-(trifluoromethyl)pyridine-2-carbonitrile] | – | – | 631 | – | 96.2 | 759 | – | – | – | > 15100 | -0.2 | 99.1 | 100 | > 15100 | 1 | – | –
7 | COCCN1CCC(Oc2ccc(N3C(=S)N(c4cnc(C#N)c(C)c4)C(=O)C34CCC4)cc2)CC1 [Cpd 37, 5-[8-[4-[[1-(2-methoxyethyl)-4-piperidyl]oxy]phenyl]-5-oxo-7-thioxo-6,8-diazaspiro[3.4]octan-6-yl]-3-methyl-pyridine-2-carbonitrile] | – | – | 407 | – | 18.8 | 1260 | – | – | – | > 15100 | 0.1 | 99.5 | 99.8 | > 15100 | 0 | – | –
8 | COCCN1CCC(Oc2ccc(N3C(=S)N(c4cnc(C#N)c(C(F)(F)F)c4)C(=O)C34CCC4)cc2)CC1 [Cpd 38, 5-[8-[4-[[1-(2-methoxyethyl)-4-piperidyl]oxy]phenyl]-5-oxo-7-thioxo-6,8-diazaspiro[3.4]octan-6-yl]-3-(trifluoromethyl)pyridine-2-carbonitrile] | – | – | 324 | – | 69.2 | 708 | – | – | – | > 15100 | 0 | 99.9 | 101 | > 15100 | 0.3 | – | –
9 | N#CCN1CCC(Oc2ccc(N3C(=S)N(c4cnc(C#N)c(C(F)(F)F)c4)C(=O)C34CCC4)cc2)CC1 [Cpd 39, 5-[8-[4-[[1-(cyanomethyl)-4-piperidyl]oxy]phenyl]-5-oxo-7-thioxo-6,8-diazaspiro[3.4]octan-6-yl]-3-(trifluoromethyl)pyridine-2-carbonitrile] | – | – | 245 | – | 86.2 | 676 | – | – | – | > 15100 | 0.9 | 101 | 100 | > 15100 | -0.1 | – | –
10 | N#Cc1ncc(N2C(=O)C3(CCC3)N(c3ccc(OC4CCN(CC(F)(F)F)CC4)cc3)C2=S)cc1C(F)(F)F [Cpd 40, 5-[5-oxo-7-thioxo-8-[4-[[1-(2,2,2-trifluoroethyl)-4-piperidyl]oxy]phenyl]-6,8-diazaspiro[3.4]octan-6-yl]-3-(trifluoromethyl)pyridine-2-carbonitrile] | – | – | 1000 | – | 67.5 | 537 | – | – | – | > 15100 | 0.2 | 96 | 97.6 | > 15100 | 1.5 | – | –
11 | CN1CCC(Oc2ccc(N3C(=S)N(c4cnc(C#N)c(C(F)F)c4)C(=O)C34CCC4)cc2)CC1 [Cpd 41, 3-(difluoromethyl)-5-[8-[4-[(1-methyl-4-piperidyl)oxy]phenyl]-5-oxo-7-thioxo-6,8-diazaspiro[3,4]octan-6-yl]pyridine-2-carbonitrile] | – | – | 257 | – | 20.4 | 427 | – | – | – | > 15100 | 0.1 | 99.9 | 99.3 | > 15100 | 0.1 | – | –
12 | N#Cc1ncc(N2C(=O)C3(CCC3)N(c3ccc(OC4CCNCC4)cc3)C2=S)cc1Cl [Cpd 44, 3-chloro-5-[5-oxo-8-[4-(4-piperidyloxy)phenyl]-7-thioxo-6,8-diazaspiro[3.4]octan-6-yl]pyridine-2-carbonitrile] | – | – | – | – | −0.5 | – | – | – | – | > 15100 | 0.7 | 101 | 98.8 | > 15100 | 0.1 | 7.43 | 7.12
13 | N#Cc1ncc(N2C(=O)C3(CCC3)N(c3ccc(CN4CCNCC4)cc3)C2=S)cc1C(F)(F)F [Cpd 48, 5-[5-oxo-8-[4-(piperazin-1-ylmethyl)phenyl]-7-thioxo-6,8-diazaspiro[3.4]octan-6-yl]-3-(trifluoromethyl)pyridine-2-carbonitrile] | – | – | – | – | 37.2 | – | – | – | – | > 15100 | 0 | 100 | 102 | > 15100 | 0.2 | 6.69 | 6.45
14 | CCOC(=O)N1CCC(CNC(=O)c2ccc(N3C(=S)N(c4cnc(C#N)c(C(F)(F)F)c4)C(=O)C34CCC4)cc2)CC1 [Cpd 49, ethyl 4-[[[4-[6-[6-cyano-5-(trifluoromethyl)-3-pyridyl]-5-oxo-7-thioxo-6,8-diazaspiro[3.4]octan-8-yl]benzoyl]amino]methyl]piperidine-1-carboxylate] | – | – | 56.2 | – | 86.4 | 105 | – | – | – | > 15100 | 0.3 | 99.5 | 101 | > 15100 | 0.4 | – | –

Reference: patent US10981926B2 (Janssen Pharmaceutica NV, priority 2016, dated 2021)
